In patent US9999650B2, “Peptide and peptidomimetic inhibitors” (Ra Pharmaceuticals, Inc., priority 2012, dated 2018):
Numbered stars: 1 amine (or outer) side, 2 acyl side, 3 side chain; on linkers, the order of the positions; unused ones are H or OH. Bridge positions count the residues as written; N and C are the ends. Square brackets hold non-standard residues; d marks the D form. Peptide text beside a SMILES is read from it. Ala(1H-tetrazol-5-yl) = N[C@@H](Cc1nnn[nH]1)C(=O)O; Phe(4-CH2NH2) = NCc1ccc(C[C@H](N)C(=O)O)cc1; mXylylene = c1cc(C[*:1])cc(C[*:2])c1; NMeI = CC[C@H](C)[C@H](NC)C(=O)O; Gly(cPr) = N[C@H](C(=O)O)C1CC1; Chg = N[C@H](C(=O)O)C1CCCCC1; Pen = CC(C)(S)[C@H](N)C(=O)O; Phg = N[C@H](C(=O)O)c1ccccc1; Tle = CC(C)(C)[C@H](N)C(=O)O; Nle = CCCC[C@H](N)C(=O)O; Nva = CCC[C@H](N)C(=O)O; Aib = CC(C)(N)C(=O)O; Mpa = O=C(O)CCS

Biological target: T1, human plasma kallikrein (Homo sapiens, UniProt P03952)
T1 construct: purchased Enzyme Research Laboratories HPKa 1303
T1 sequence (P03952 20-390 limits assumed): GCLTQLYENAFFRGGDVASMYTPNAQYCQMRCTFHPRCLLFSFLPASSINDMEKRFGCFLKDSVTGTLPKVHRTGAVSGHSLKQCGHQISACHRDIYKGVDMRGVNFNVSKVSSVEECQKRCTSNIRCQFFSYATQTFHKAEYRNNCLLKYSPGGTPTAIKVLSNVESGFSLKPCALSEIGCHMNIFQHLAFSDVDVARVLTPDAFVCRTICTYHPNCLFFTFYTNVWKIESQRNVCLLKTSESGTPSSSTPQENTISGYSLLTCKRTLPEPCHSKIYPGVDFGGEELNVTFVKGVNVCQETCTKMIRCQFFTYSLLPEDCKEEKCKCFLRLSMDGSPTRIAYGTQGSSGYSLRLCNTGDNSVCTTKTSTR
T1 sequence (P03952 391-638 limits assumed): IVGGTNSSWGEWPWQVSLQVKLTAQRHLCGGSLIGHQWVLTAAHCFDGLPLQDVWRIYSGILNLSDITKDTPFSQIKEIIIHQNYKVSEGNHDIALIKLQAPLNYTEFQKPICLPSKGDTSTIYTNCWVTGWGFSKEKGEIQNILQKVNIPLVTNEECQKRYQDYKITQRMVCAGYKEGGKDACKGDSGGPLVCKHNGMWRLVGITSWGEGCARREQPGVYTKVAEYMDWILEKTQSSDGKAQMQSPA
Test: Enzyme inhibition assay (fluorogenic substrate H-Pro-Phe-Arg-AMC)
Assay type: biochemical
Details: Kallikrein inhibitory activity; 1 nM activated human kallikrein, 500 μM H-Pro-Phe-Arg-AMC, 1 hour room temperature; read-out: Avg. IC50
Experimental: Activated human plasma kallikrein (Enzyme Research Laboratories, HPKa 1303) was reacted with H-Pro-Phe-Arg-7-amido-4-methylcoumarin (H-Pro-Pre-Arg-AMC) (a fluorogenic substrate for plasma as well as pancreatic and urinary kallikreins; Bachem I-1295) and candidate inhibitory peptides to determine the IC50 of the inhibitor.
Ten 8-fold serial dilutions of peptides (10 mM DMSO stocks) were performed in DMSO and then added to TCNB (50 mM Tris-HCl pH 7.2, 150 mM NaCl, 10 mM CaCl2, 0.05% Brij-35) and sonicated. 50 μL of the peptide dilutions were added to microtitre plates (96 well, black non-binding surface, Corning, 3650) and incubated for 5 minutes at room temperature with 4 nM activated human kallikrein (final concentration after addition of fluorogenic substrate: 1 nM). The samples were then incubated for 1 hour at room temperature with 2 mM H-Pro-Phe-Arg-AMC (final concentration 500 μM). Relative Fluorescence Units (RFU) were measured at excitation/emission 360 nm/460 nm by a SpectraMax M3.

Structure (SMILES) | IC50 [nM]
CSCC[C@H](N)C(=O)N[C@H]1CSCc2cccc(c2)CSC[C@@H](C(=O)N[C@@H](CO)C(=O)N[C@@H](CCCNC(=N)N)C(N)=O)NC(=O)[C@H](CCC(=O)O)NC(=O)[C@H]([C@@H](C)O)NC(=O)[C@H](Cc2c[nH]c3ccccc23)NC(=O)[C@@H]2CCCN2C(=O)[C@H](CO)NC(=O)[C@H](Cc2c[nH]c3ccccc23)NC(=O)[C@H](Cc2ccc(O)cc2)NC(=O)[C@H](CC(N)=O)NC1=O [Compound R2003, [mXylyl(2,11)]MCNYWSPWTECSR-NH2] (H-MCNYWSPWTECSR-NH2; linker 2-11 via mXylylene) | 3.1
CC[C@H](C)[C@@H]1NC(=O)[C@H](CO)NC(=O)[C@H](CCC(=O)O)NC(=O)[C@@H](NC(=O)[C@@H](N)CCSC)CSCc2cccc(c2)CSC[C@@H](C(=O)N[C@@H](CCCNC(=N)N)C(=O)N[C@H](C(=O)N[C@@H](CC(C)C)C(=O)N[C@@H](CCCNC(=N)N)C(=O)N[C@@H](Cc2ccc(O)cc2)C(=O)N[C@@H](CO)C(=O)N[C@@H](CCC(=O)O)C(N)=O)C(C)C)NC1=O [Compound R2004, [mXylyl(2,6)]MCESICRVLRYSE-NH2] (H-MCESICRVLRYSE-NH2; linker 2-6 via mXylylene) | 0.501
CC[C@H](C)[C@H](NC(=O)[C@H](CO)NC(=O)[C@H](CCC(=O)O)NC(=O)[C@H](CS)NC(=O)[C@@H](N)CCSC)C(=O)N[C@@H](CS)C(=O)N[C@@H](CCCNC(=N)N)C(=O)N[C@H](C(N)=O)C(C)C [Compound R2007, MCESICRV-NH2] (H-MCESICRV-NH2; N-terminus assumed) | 2000
CCC[C@H](N)C(=O)N[C@H]1CSCc2cccc(c2)CSC[C@@H](C(=O)N[C@@H](CCCNC(=N)N)C(=O)N[C@H](C(N)=O)C(C)(C)C)NC(=O)[C@H](c2ccccc2)NC(=O)[C@H](CO)NC(=O)[C@H](CCC(=O)O)NC1=O [Compound R2013, [mXylyl(2,6)]Nvl-CES-Phg-CR-Tbg-NH2] (H-[Nva]CES[Phg]CR[Tle]-NH2; linker 2-6 via mXylylene) | 6.8
CC[C@H](C)[C@@H]1NC(=O)[C@H](CO)NC(=O)[C@H](Cc2nn[nH]n2)NC(=O)[C@@H](NC(=O)[C@@H](N)CCSC)CSCc2cccc(c2)CSC[C@@H](C(=O)N[C@@H](CCCNC(=N)N)C(=O)N[C@H](C(N)=O)C(C)C)NC1=O [Compound R2020, [mXylyl(2,6)]MC-Asp(T)-SICRV-NH2] (H-MC[Ala(1H-tetrazol-5-yl)]SICRV-NH2; linker 2-6 via mXylylene) | 13
CCC[C@H](N)C(=O)N[C@H]1CSCc2cccc(c2)CSC[C@@H](C(=O)N[C@@H](Cc2ccc(CN)cc2)C(=O)N[C@H](C(N)=O)C(C)C)NC(=O)[C@H]([C@@H](C)CC)NC(=O)[C@H](CO)NC(=O)[C@H](CCC(=O)O)NC1=O [Compound R2021, [mXylyl(2,6)]Nvl-CESIC-Phe(4-CH2NH2)-V-NH2] (H-[Nva]CESIC[Phe(4-CH2NH2)]V-NH2; linker 2-6 via mXylylene) | 2000
CC[C@H](C)[C@H]1C(=O)N[C@H](C(=O)N[C@@H](CCCNC(=N)N)C(=O)N[C@H](C(N)=O)C(C)C)CSCc2cccc(c2)CSC[C@H](NC(=O)[C@@H](N)CCSC)C(=O)N[C@@H](CCC(=O)O)C(=O)N[C@@H](CO)C(=O)N1C [Compound R2026, [mXylyl(2,6)]MCES-nMeI-CRV-NH2] (H-MCES[NMeI]CRV-NH2; linker 2-6 via mXylylene) | 26
CCC[C@H](N)C(=O)N[C@@H]1C(=O)N[C@@H](CCC(=O)O)C(=O)N[C@@H](CO)C(=O)N[C@@H]([C@@H](C)CC)C(=O)N[C@H](C(=O)N[C@@H](CCCNC(=N)N)C(=O)N[C@H](C(N)=O)C(C)C)CSCc2cccc(c2)CSC1(C)C [Compound R2031, [mXylyl(2,6)]Nvl-Pen-ESICRV-NH2] (H-[Nva][Pen]ESICRV-NH2; linker 2-6 via mXylylene) | 1460
CCC[C@H](N)C(=O)N[C@@H]1C(=O)N[C@@H](CCC(=O)O)C(=O)N[C@@H](CO)C(=O)N[C@@H]([C@@H](C)CC)C(=O)N[C@H](C(=O)N[C@@H](CCCNC(=N)N)C(=O)N[C@H](C(N)=O)C(C)C)C(C)(C)SCc2cccc(c2)CSC1(C)C [Compound R2034, [mXylyl(2,6)]Nvl-Pen-ESI-Pen-RV-NH2] (H-[Nva][Pen]ESI[Pen]RV-NH2; linker 2-6 via mXylylene) | > 100000
CC[C@H](C)[C@@H]1NC(=O)[C@H](CO)NC(=O)[C@H](CCC(=O)O)NC(=O)[C@@H](NC(C)=O)CSCc2cccc(c2)CSC[C@@H](C(=O)N[C@@H](CCCNC(=N)N)C(=O)N[C@H](C(=O)N[C@@H](CC(C)C)C(=O)N[C@@H](CCCNC(=N)N)C(=O)N[C@@H](Cc2ccc(O)cc2)C(=O)N[C@@H](CO)C(N)=O)C(C)C)NC1=O [Compound R2056, [mXylyl(1,5)]Ac-CESICRVLRYS-NH2] (Ac-CESICRVLRYS-NH2; linker 1-5 via mXylylene) | 1.9
CCCC[C@@H]1NC(=O)[C@@H](NC(C)=O)CSCc2cccc(c2)CSC[C@@H](C(=O)N[C@@H](CCCNC(=N)N)C(=O)N[C@H](C(N)=O)C(C)(C)C)NC(=O)[C@H](c2ccccc2)NC(=O)[C@H](CO)NC1=O [Compound R2065, [mXylyl(1,5)]Ac-C-Nle-S-Phg-CR-Tbg-NH2] (Ac-C[Nle]S[Phg]CR[Tle]-NH2; linker 1-5 via mXylylene) | 6.1
CC(=O)N[C@H]1CSCc2cccc(c2)CSC[C@@H](C(=O)N[C@@H](CCCNC(=N)N)C(=O)N[C@H](C(N)=O)C2CC2)NC(=O)[C@H](c2ccccc2)NC(=O)[C@H](CO)NC(=O)[C@@H](C)NC1=O [Compound R2070, [mXylyl(1,5)]Ac-C-a-S-Phg-CR-Cppg-NH2] (Ac-C[dA]S[Phg]CR[Gly(cPr)]-NH2; linker 1-5 via mXylylene) | 118
CC[C@H](C)[C@@H]1NC(=O)[C@H](C)NC(=O)[C@H](C)NC(=O)CCSCc2cccc(c2)CSC[C@@H](C(=O)N[C@@H](CCCNC(=N)N)C(=O)N[C@H](C(N)=O)C(C)C)NC1=O [Compound R2072, [mXylyl(1,5)](des-NH2)C-AAICRV-NH2] ([Mpa]AAICRV-NH2; linker 1-5 via mXylylene) | 13
CC[C@H](C)[C@@H]1NC(=O)[C@H](CO)NC(=O)[C@H](CCC(=O)O)NC(=O)[C@@H](NC(=O)[C@@H](N)CCSC)CSCc2cccc(c2)CSC[C@@H](C(=O)N[C@@H](CCCNC(=N)N)C(=O)N[C@@H](CCC(=O)O)C(N)=O)NC1=O [Compound R2087, [mXylyl(2,6)]MCESICRE-NH2] (H-MCESICRE-NH2; linker 2-6 via mXylylene) | > 16600
C[C@@H]1NC(=O)C(C)(C)NC(=O)CCSCc2cccc(c2)CSC[C@@H](C(=O)N[C@@H](CCCNC(=N)N)C(=O)N[C@H](C(N)=O)C(C)(C)C)NC(=O)[C@H](C2CCCCC2)NC1=O [Compound R2091, [mXylyl(1,5)](des-NH2)C-Aib-A-Chg-CR-Tbg-NH2] ([Mpa][Aib]A[Chg]CR[Tle]-NH2; linker 1-5 via mXylylene) | 3.2
CSCC[C@H](N)C(=O)N[C@@H](CS)C(=O)N[C@@H](CC(N)=O)C(=O)N[C@@H](Cc1ccc(O)cc1)C(=O)N[C@@H](Cc1c[nH]c2ccccc12)C(=O)N[C@@H](CO)C(=O)N1CCC[C@H]1C(=O)N[C@@H](Cc1c[nH]c2ccccc12)C(=O)N[C@H](C(=O)N[C@@H](CCC(=O)O)C(=O)N[C@@H](CS)C(=O)N[C@@H](CO)C(N)=O)[C@@H](C)O [Compound R2110, MCNYWSPWTECS-NH2] (H-MCNYWSPWTECS-NH2; N-terminus assumed) | 3.5
CC(=O)N[C@@H](CS)C(=O)N[C@@H](CC(N)=O)C(=O)N[C@@H](Cc1ccc(O)cc1)C(=O)N[C@@H](Cc1c[nH]c2ccccc12)C(=O)N[C@@H](CO)C(=O)N1CCC[C@H]1C(=O)N[C@@H](Cc1c[nH]c2ccccc12)C(=O)N[C@H](C(=O)N[C@@H](CCC(=O)O)C(=O)N[C@@H](CS)C(=O)N[C@@H](CO)C(=O)N[C@@H](C)C(N)=O)[C@@H](C)O [Compound R2116, Ac-CNYWSPWTECSA-NH2] (Ac-CNYWSPWTECSA-NH2) | 3.5
CC(=O)N[C@@H](CS)C(=O)N[C@@H](CC(N)=O)C(=O)N[C@@H](Cc1ccc(O)cc1)C(=O)N[C@@H](Cc1c[nH]c2ccccc12)C(=O)N[C@@H](C)C(=O)N1CCC[C@H]1C(=O)N[C@@H](Cc1c[nH]c2ccccc12)C(=O)N[C@H](C(=O)N[C@@H](CCC(=O)O)C(=O)N[C@@H](CS)C(N)=O)[C@@H](C)O [Compound R2131, Ac-CNYWAPWTEC-NH2] (Ac-CNYWAPWTEC-NH2) | 127
CC(=O)N[C@H]1CSCc2cccc(c2)CSC[C@@H](C(N)=O)NC(=O)[C@H](C)NC(=O)[C@H]([C@@H](C)O)NC(=O)[C@H](Cc2c[nH]c3ccccc23)NC(=O)[C@@H]2CCCN2C(=O)[C@H](CO)NC(=O)[C@H](Cc2c[nH]c3ccccc23)NC(=O)[C@H](Cc2ccc(O)cc2)NC(=O)[C@H](CC(N)=O)NC1=O [Compound R2136, [mXylyl(1,10)]Ac-CNYWSPWTAC-NH2] (Ac-CNYWSPWTAC-NH2; linker 1-10 via mXylylene) | 6.1
CC(=O)N[C@H]1CSSC[C@@H](C(N)=O)NC(=O)[C@H](C)NC(=O)[C@H]([C@@H](C)O)NC(=O)[C@H](Cc2c[nH]c3ccccc23)NC(=O)[C@@H]2CCCN2C(=O)[C@H](CO)NC(=O)[C@H](Cc2c[nH]c3ccccc23)NC(=O)[C@H](Cc2ccc(O)cc2)NC(=O)[C@H](CC(N)=O)NC1=O [Compound R2142, [cyclo(1,10)]Ac-CNYWSPWTAC-NH2] (Ac-CNYWSPWTAC-NH2; disulfide 1-10) | 2.7
